Measured values taken from US12318373B2, “Methods of treating gastrointestinal stromal tumors” (Deciphera Pharmaceuticals, LLC, priority 2019, dated 2025).

Tests used:
[1] = Example 7: coadministration with strong CYP3A inhibitor (itraconazole), exposure; assay type: in vivo; conditions: coadministration of ripretinib with itraconazole
[2] = system: patients with advanced GIST; assay: Example 2: patient reported outcomes (EQ-5D-5L VAS, EORTC QLQ-C30); assay type: in vivo, human; conditions: 150 mg QD
Method: Patient reported outcomes were assessed by EQ-5D-5L, which provides a visual analogue scale (VAS), and EORTC QLQ-C30, which provides physical function and role function scales. The EQ-5D-5L VAS (or EQ-VAS) records the respondent's overall current health on a vertical visual analogue scale and provides a quantitative measure of the patient's perception of overall health. These patient outcomes were reported across 28-day cycles of receiving 150 mg QD ripretinib or placebo.
The EORTC QLQ-C30 is an assessment of function and symptoms of therapy by cancer patient, and is not specific to any cancer. The EORTC QLQ-C30 is a 30-question plus one global health status, including 5 functional scales, 3 symptom scales and a global health status.

Solubility = assay type: physicochemical

Structure (SMILES): CCn1c(=O)c(-c2cc(NC(=O)Nc3ccccc3)c(F)cc2Br)cc2cnc(NC)cc21 [ripretinib]
- Increase in AUC0-inf [1]: 99%
- Increase in Cmax [1]: 36%
- EORTC QLQ-C30 role function score, average improvement from baseline to C2D1 ([2]; 70 patients): 3.5
- EQ-VAS score, average improvement from baseline to Cycle 2, Day 1 (C2D1) ([2]; 70 patients): 3.7
- EORTC QLQ-C30 physical function score, average improvement from baseline to C2D1 ([2]; 71 patients): 1.6
- EORTC QLQ-C30 Question C29 (overall health) score improvement ([2]; scale 1 to 7, 70 patients): 0.20
- EORTC QLQ-C30 Question C30 (overall quality of life) score improvement ([2]; scale 1 to 7, 70 patients): 0.28
- Solubility (Solubility): pH-dependent solubility
